Assay results from patent US20130252916A1, “ORAMUCOSAL PHARMACEUTICAL DOSAGE FORM” (UNIVERSITY OF THE WITWATERSRAND, JOHANNESBURG, priority 2005, published 2013).

Experiments:
[1] = solubility and dissolution of diluents in water; format: physicochemical; conditions: lactose compared with mannitol
[2] = Windholz et al., 1976; cited from earlier work

SMILES	rate of dissolution [1]	solubility (amount of cold water needed to dissolve) [2] [mL]
OC[C@H]1O[C@@H](O[C@H]2[C@H](O)[C@@H](O)C(O)O[C@@H]2CO)[C@H](O)[C@@H](O)[C@H]1O (some centres unmarked) [lactose]	slower rate than mannitol	
OC[C@@H](O)[C@@H](O)[C@H](O)[C@H](O)CO [mannitol]		5.5
